Experimental data published in patent US8735364B2, “Antisense modulation of apolipoprotein B expression” (Genzyme Corporation, priority 2001, dated 2014).

Legend:
Type in all cases: in vivo, mouse
[1] = Body, spleen, liver and fat pad weight, high fat fed mice, 6 week study; conditions: compared to saline-treated controls
Protocol: (§1) Male C57BL/6 mice (n=8) receiving a high fat diet (60% kcal fat) were evaluated over the course of 6 weeks for the effects of treatment with the antisense oligonucleotide, ISIS 147764. Control animals received saline treatment (50 mg/kg). A subset of animals received a daily oral dose (20 mg/kg) atorvastatin calcium (Lipitor®, Pfizer Inc.). All mice, except atorvastatin-treated animals, were dosed intraperitoneally every three days (twice a week), after fasting overnight, with 5, 25, 50 mg/kg ISIS 147764 (SEQ ID No: 109) or saline (50 mg/kg) for six weeks. Serum cholesterol and lipoproteins were analyzed at 0, 2 and 6 week interim timepoints. At study termination, animals were sacrificed 48 hours after the final injections and evaluated for levels of target mRNA levels in liver, cholesterol, lipoprotein, triglyceride, liver enzyme (AST and ALT) and serum glucose levels as well as body, liver, spleen and fat pad weights.
(§2) Male C57BL/6 mice (n=8) receiving a high fat diet (60% kcal fat) were evaluated over the course of 6 weeks for the effects of ISIS 147764 on body, spleen, liver and fat pad weight. Control animals received saline treatment (50 mg/kg). Mice were dosed intraperitoneally every three days (twice a week), after fasting overnight, with 5, 25, 50 mg/kg ISIS 147764 (SEQ ID No: 109) or saline (50 mg/kg) for six weeks.
At study termination, animals were sacrificed 48 hours after the final injections and body, spleen, liver and fat pad weights were measured. Values are expressed as percent change in body weight or ogan weight compared to the saline-treated control animals. Data from mice treated with atorvastatin at a daily dose of 20 mg/kg are also shown in the table Negative values indicated a decrease in weight.

[2] = system: apolipoprotein B mRNA; test: Target mRNA levels in liver, high fat fed mice, 6 week timecourse study; conditions: high fat fed C57BL/6 mice, six weeks
Protocol: as §1
as §2, with “mRNA expression.” for “body, spleen, liver and fat pad weight.”, “weeks. At study termination, animals were sacrificed 48 hours after the final injections and evaluated for levels of target mRNA levels in liver.” for “weeks.”

[3] = Glucose, cholesterol and lipoprotein levels in ApoE knockout mice; conditions: for Lipoprotein Levels HDL: Control 51; for Glucose Levels: Control 225; for Lipoprotein Levels LDL: Control 525; for Lipoprotein Levels VLDL: Control 1190; for Cholesterol Levels: Control 1750
Protocol: Female ApoE knockout mice ranged in age from 5 to 7 weeks and were placed on a normal diet for 2 weeks before study initiation. ApoE knockout mice were then fed ad libitum a 60% fat diet, with 0.15% added cholesterol to induce dyslipidemia and obesity. Control animals were maintained on a high-fat diet with no added cholesterol After overnight fasting, mice from each group were dosed intraperitoneally every three days with saline, 50 mg/kg of a control antisense oligonucleotide (ISIS 29837 […]; SEQ ID NO. 124) or 5, 25 or 50 mg/kg ISIS 147764 (SEQ ID No: 109) for six weeks.
(§3) At study termination and forty eight hours after the final injections, animals were sacrificed and evaluated for target mRNA levels in liver by RT-PCR methods verified by Northern Blot analysis, glucose levels, cholesterol and lipid levels by HPLC separation methods and triglyceride and liver enzyme levels (perfomed by LabCorp Preclinical Services; San Diego, Calif.). Data are normalized to saline controls.

[4] = Lipoprotein (VLDL, LDL, HDL) levels, high fat fed mice, 6 week study; conditions: for HDL Percent Inhibition / LDL Percent Inhibition / VLDL Percent Inhibition: negative = increase
Protocol: as §1
as §2, with “lipoprotein (VLDL, LDL” for “body, spleen, liver”, “HDL) levels.” for “fat pad weight.”
Values in the table are expressed as percent inhibition and are normalized to the saline control. Negative values indicate an observed increase in lipoprotein levels.

[5] = Liver enzyme levels in ApoE knockout mice; conditions: for Liver Enzyme Levels AST: Control 55; for Liver Enzyme Levels ALT: Control 56
Text: Female ApoE knockout mice ranged in age from 5 to 7 weeks and were placed on a normal diet for 2 weeks before study initiation. ApoE knockout mice were then fed ad libitum a 60% fat diet, with 0.15% added cholesterol to induce dyslipidemia and obesity. […]
as §3

Sequence: GTCCCTGAAGATGTCAATGC (2'-MOE gapmer with phosphorothioates, pattern not given here) [ISIS 147764, 2′-MOE gapmer phosphorothioate oligonucleotide to mouse apolipoprotein B]
- Fat pad weight Percent Change ([1]; 5 mg/kg): 10%
- Liver weight Percent Change ([1]; 5 mg/kg): 18%
- Spleen weight Percent Change ([1]; 5 mg/kg): 10%
- Total Body Wt. Percent Change ([1]; 5 mg/kg): 5%
- Fat pad weight Percent Change ([1]; 25 mg/kg): 6%
- Liver weight Percent Change ([1]; 25 mg/kg): 70%
- Spleen weight Percent Change ([1]; 25 mg/kg): 10%
- Total Body Wt. Percent Change ([1]; 25 mg/kg): 5%
- Fat pad weight Percent Change ([1]; 50 mg/kg): −47%
- Liver weight Percent Change ([1]; 50 mg/kg): 80%
- Spleen weight Percent Change ([1]; 50 mg/kg): 46%
- Total Body Wt. Percent Change ([1]; 50 mg/kg): −4%
- reduction of target mRNA levels in liver ([2]; 5 mg/kg i.p. every three days): 15%
- reduction of target mRNA levels in liver ([2]; 25 mg/kg i.p. every three days): 75%
- reduction of target mRNA levels in liver ([2]; 50 mg/kg i.p. every three days): 88%
- Lipoprotein Levels HDL ([3]; 5 mg/kg): 49 mg/dL
- Glucose Levels ([3]; 5 mg/kg): 195 mg/dL
- Lipoprotein Levels LDL ([3]; 5 mg/kg): 475 mg/dL
- Lipoprotein Levels VLDL ([3]; 5 mg/kg): 1111 mg/dL
- Cholesterol Levels ([3]; 5 mg/kg): 1630 mg/dL
- Lipoprotein Levels HDL ([3]; 25 mg/kg): 62 mg/dL
- Glucose Levels ([3]; 25 mg/kg): 209 mg/dL
- Lipoprotein Levels LDL ([3]; 25 mg/kg): 500 mg/dL
- Lipoprotein Levels VLDL ([3]; 25 mg/kg): 1194 mg/dL
- Cholesterol Levels ([3]; 25 mg/kg): 1750 mg/dL
- Lipoprotein Levels HDL ([3]; 50 mg/kg): 61 mg/dL
- Glucose Levels ([3]; 50 mg/kg): 191 mg/dL
- Lipoprotein Levels LDL ([3]; 50 mg/kg): 325 mg/dL
- Lipoprotein Levels VLDL ([3]; 50 mg/kg): 1113 mg/dL
- Cholesterol Levels ([3]; 50 mg/kg): 1490 mg/dL
- HDL Percent Inhibition ([4]; 5 mg/kg, 0 weeks): 0%
- LDL Percent Inhibition ([4]; 5 mg/kg, 0 weeks): 2%
- VLDL Percent Inhibition ([4]; 5 mg/kg, 0 weeks): 0%
- HDL Percent Inhibition ([4]; 5 mg/kg, 2 weeks): 5%
- LDL Percent Inhibition ([4]; 5 mg/kg, 2 weeks): −30%
- VLDL Percent Inhibition ([4]; 5 mg/kg, 2 weeks): 25%
- HDL Percent Inhibition ([4]; 5 mg/kg, 6 weeks): 10%
- LDL Percent Inhibition ([4]; 5 mg/kg, 6 weeks): −10%
- VLDL Percent Inhibition ([4]; 5 mg/kg, 6 weeks): 10%
- HDL Percent Inhibition ([4]; 25 mg/kg, 0 weeks): 0%
- LDL Percent Inhibition ([4]; 25 mg/kg, 0 weeks): 0%
- VLDL Percent Inhibition ([4]; 25 mg/kg, 0 weeks): 0%
- HDL Percent Inhibition ([4]; 25 mg/kg, 2 weeks): 10%
- LDL Percent Inhibition ([4]; 25 mg/kg, 2 weeks): 10%
- VLDL Percent Inhibition ([4]; 25 mg/kg, 2 weeks): 30%
- HDL Percent Inhibition ([4]; 25 mg/kg, 6 weeks): 45%
- LDL Percent Inhibition ([4]; 25 mg/kg, 6 weeks): 55%
- VLDL Percent Inhibition ([4]; 25 mg/kg, 6 weeks): −30%
- lowering all categories of serum lipoproteins investigated, compared with atorvastatin ([4]; 50 mg/kg): to a greater extent than atorvastatin
- HDL Percent Inhibition ([4]; 50 mg/kg, 0 weeks): 0%
- LDL Percent Inhibition ([4]; 50 mg/kg, 0 weeks): 0%
- VLDL Percent Inhibition ([4]; 50 mg/kg, 0 weeks): 0%
- HDL Percent Inhibition ([4]; 50 mg/kg, 2 weeks): 10%
- LDL Percent Inhibition ([4]; 50 mg/kg, 2 weeks): 40%
- VLDL Percent Inhibition ([4]; 50 mg/kg, 2 weeks): 40%
- HDL Percent Inhibition ([4]; 50 mg/kg, 6 weeks): 50%
- LDL Percent Inhibition ([4]; 50 mg/kg, 6 weeks): 90%
- VLDL Percent Inhibition ([4]; 50 mg/kg, 6 weeks): 15%
- changes in liver enzyme levels [5]: No significant changes
- Liver Enzyme Levels AST ([5]; 5 mg/kg): 50 IU/L
- Liver Enzyme Levels ALT ([5]; 5 mg/kg): 48 IU/L
- Liver Enzyme Levels AST ([5]; 25 mg/kg): 60 IU/L
- Liver Enzyme Levels ALT ([5]; 25 mg/kg): 59 IU/L
- Liver Enzyme Levels AST ([5]; 50 mg/kg): 85 IU/L
- Liver Enzyme Levels ALT ([5]; 50 mg/kg): 87 IU/L
